In paper PMC7316778 (Nature Communications, 2020):
Where “and” joins values, the source holds several entries; their conditions need not be identical. Equal values may be shown once. Read-outs that look alike come from different tables or passages of the source.

Key:
Experiment in all cases: SelectScreen kinase assay
PEAK1 = PEAK1 (Homo sapiens, UniProt Q9H792)
Experimental: (§1) Selectivity profiling assays were performed by the Invitrogen SelectScreen™ Services. […] The concentration of ATP was selected to be equal to the KM, unless indicated otherwise.

CSNK1E (CK1 epsilon) = CSNK1E (CK1 epsilon) (Homo sapiens, UniProt P49674); conditions: for Inhibition at 1 µM (%): CSNK1E (CK1 epsilon), ZLYTE, ATP Km app
Experimental: as §1

PIP4K2A = PIP4K2A (Homo sapiens, UniProt P48426); conditions: 1 h, 1 μM WEL028, 1 h preincubation
Experimental: as §1

DAPK2 = DAPK2 (Homo sapiens, UniProt Q9UIK4); conditions: for Inhibition at 1 µM (%): DAPK2, LanthaScreen Binding
Experimental: as §1

WNK1 = WNK1 (Homo sapiens, UniProt Q9H4A3)
Experimental: as §1

CSNK2A1 (CK2 alpha 1) = CSNK2A1 (CK2 alpha 1) (Homo sapiens, UniProt P68400)
Experimental: as §1

DDR2 = DDR2 (Homo sapiens, UniProt Q16832)
Experimental: as §1

TBK1 = target: T1, TBK1 (Homo sapiens, UniProt Q9UHD2)
T1 sequence (Q9UHD2 1-729): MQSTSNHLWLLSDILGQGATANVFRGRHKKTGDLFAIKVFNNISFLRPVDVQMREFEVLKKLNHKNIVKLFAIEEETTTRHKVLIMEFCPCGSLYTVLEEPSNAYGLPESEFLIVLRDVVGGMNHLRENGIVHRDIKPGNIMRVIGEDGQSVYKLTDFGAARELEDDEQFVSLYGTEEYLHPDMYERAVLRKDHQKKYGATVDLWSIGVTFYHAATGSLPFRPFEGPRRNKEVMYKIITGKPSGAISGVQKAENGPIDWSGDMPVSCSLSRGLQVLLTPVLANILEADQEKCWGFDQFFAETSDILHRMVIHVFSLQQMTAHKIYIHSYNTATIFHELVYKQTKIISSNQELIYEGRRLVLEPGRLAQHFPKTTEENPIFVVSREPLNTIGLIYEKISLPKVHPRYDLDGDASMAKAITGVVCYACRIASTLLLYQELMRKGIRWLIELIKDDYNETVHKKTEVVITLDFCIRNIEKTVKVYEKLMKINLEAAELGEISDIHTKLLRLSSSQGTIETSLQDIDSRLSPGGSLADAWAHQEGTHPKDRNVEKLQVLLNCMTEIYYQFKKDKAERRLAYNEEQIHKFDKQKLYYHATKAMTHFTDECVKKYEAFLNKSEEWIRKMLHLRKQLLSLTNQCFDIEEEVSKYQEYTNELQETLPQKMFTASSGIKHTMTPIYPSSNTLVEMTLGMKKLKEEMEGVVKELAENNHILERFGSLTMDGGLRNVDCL
Experimental: as §1

PRKCH (PKC eta) = PRKCH (PKC eta) (Homo sapiens, UniProt P24723); conditions: 1 h, 1 μM WEL028, 1 h preincubation
Experimental: as §1

NEK6 = NEK6 (Homo sapiens, UniProt Q9HC98); conditions: for Inhibition at 1 µM (%): NEK6, ZLYTE, ATP Km app
Experimental: as §1

GRK5 = GRK5 (Homo sapiens, UniProt P34947)
Experimental: as §1

DYRK3 = DYRK3 (Homo sapiens, UniProt O43781)
Experimental: as §1

SRPK1 = SRPK1 (Homo sapiens, UniProt Q96SB4)
Experimental: as §1

[1] = target: PIK3CB/PIK3R2 (p110 beta/p85 beta) (Homo sapiens, UniProt P42338)
Experimental: as §1

NTRK2 (TRKB) = NTRK2 (TRKB) (Homo sapiens, UniProt Q16620)
Experimental: as §1

CSNK1G3 (CK1 gamma 3) = CSNK1G3 (CK1 gamma 3) (Homo sapiens, UniProt Q9Y6M4)
Experimental: as §1

JAK1 = JAK1 (Homo sapiens, UniProt P23458); conditions: for Inhibition at 1 µM (%): JAK1, ZLYTE, ATP Km app
Experimental: as §1

CDK6/cyclin D1 = CDK6/cyclin D1 (Homo sapiens, UniProt Q00534); conditions: 1 h, 1 μM WEL028, 1 h preincubation
Experimental: as §1

STK17A (DRAK1) = target: T2, STK17A (DRAK1) (Homo sapiens, UniProt Q9UEE5)
T2 sequence (Q9UEE5 1-414): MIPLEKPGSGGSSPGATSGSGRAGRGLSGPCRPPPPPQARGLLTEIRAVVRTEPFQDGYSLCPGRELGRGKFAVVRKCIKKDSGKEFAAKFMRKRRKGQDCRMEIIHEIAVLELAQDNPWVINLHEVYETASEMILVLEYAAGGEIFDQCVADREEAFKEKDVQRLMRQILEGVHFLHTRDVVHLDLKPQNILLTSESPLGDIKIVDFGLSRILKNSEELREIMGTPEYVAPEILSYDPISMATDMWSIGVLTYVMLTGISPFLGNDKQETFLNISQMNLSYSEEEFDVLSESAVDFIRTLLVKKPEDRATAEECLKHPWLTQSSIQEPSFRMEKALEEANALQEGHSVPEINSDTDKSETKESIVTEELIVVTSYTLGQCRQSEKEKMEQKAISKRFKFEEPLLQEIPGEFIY
Experimental: as §1

EPHA6 = EPHA6 (Homo sapiens, UniProt Q9UF33)
Experimental: as §1

[2] = 1 h, 1 μM WEL028, 1 h preincubation
[3] = 1 µM, ZLYTE, ATP Km app, listed as WEL028, 1 µM

Sequence of DYRK3 (O43781 whole entry): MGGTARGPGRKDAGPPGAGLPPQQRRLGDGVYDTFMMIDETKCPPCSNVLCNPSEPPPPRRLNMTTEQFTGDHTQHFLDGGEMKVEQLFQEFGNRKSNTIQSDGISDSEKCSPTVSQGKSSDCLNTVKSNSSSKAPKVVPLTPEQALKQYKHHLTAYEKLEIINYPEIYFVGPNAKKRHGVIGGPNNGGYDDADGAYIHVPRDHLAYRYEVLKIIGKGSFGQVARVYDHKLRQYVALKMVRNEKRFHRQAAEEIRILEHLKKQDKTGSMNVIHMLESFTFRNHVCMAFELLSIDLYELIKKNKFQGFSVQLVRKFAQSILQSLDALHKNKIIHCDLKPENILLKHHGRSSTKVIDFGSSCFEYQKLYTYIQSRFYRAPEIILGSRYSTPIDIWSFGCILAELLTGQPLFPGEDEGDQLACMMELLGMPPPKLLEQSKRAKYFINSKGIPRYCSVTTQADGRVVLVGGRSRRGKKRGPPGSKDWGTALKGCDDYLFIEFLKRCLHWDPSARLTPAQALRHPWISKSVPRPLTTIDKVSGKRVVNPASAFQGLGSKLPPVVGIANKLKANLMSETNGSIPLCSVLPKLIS
Sequence of SRPK1 (Q96SB4 whole entry): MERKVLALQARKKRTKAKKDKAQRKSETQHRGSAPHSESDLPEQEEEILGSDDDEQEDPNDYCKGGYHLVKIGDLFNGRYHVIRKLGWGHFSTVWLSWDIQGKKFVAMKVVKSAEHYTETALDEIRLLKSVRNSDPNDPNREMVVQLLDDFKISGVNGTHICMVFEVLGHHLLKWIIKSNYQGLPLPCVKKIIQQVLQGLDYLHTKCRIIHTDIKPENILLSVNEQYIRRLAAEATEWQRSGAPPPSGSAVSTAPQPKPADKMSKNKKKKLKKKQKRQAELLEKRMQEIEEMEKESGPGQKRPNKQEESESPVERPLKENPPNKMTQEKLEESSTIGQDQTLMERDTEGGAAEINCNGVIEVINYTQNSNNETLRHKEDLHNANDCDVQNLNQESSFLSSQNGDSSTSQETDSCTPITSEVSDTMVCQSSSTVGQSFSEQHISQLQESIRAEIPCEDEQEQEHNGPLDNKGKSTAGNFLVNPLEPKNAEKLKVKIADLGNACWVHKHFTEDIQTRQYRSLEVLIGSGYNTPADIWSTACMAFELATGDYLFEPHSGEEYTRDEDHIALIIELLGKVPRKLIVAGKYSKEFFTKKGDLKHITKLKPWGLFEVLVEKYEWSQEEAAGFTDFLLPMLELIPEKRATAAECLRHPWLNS
Sequence of DAPK2 (Q9UIK4 whole entry): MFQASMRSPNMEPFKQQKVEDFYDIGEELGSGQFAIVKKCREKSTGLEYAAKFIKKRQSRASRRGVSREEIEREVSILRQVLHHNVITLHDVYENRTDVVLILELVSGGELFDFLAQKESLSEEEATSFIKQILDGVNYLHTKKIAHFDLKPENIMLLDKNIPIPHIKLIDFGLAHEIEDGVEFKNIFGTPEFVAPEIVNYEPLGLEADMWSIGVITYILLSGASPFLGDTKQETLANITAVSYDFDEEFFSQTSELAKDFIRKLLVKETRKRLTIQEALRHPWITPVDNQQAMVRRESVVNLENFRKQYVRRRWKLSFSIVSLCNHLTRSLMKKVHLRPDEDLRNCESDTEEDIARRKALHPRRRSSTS
Sequence of NTRK2 (TRKB) (Q16620 32-822): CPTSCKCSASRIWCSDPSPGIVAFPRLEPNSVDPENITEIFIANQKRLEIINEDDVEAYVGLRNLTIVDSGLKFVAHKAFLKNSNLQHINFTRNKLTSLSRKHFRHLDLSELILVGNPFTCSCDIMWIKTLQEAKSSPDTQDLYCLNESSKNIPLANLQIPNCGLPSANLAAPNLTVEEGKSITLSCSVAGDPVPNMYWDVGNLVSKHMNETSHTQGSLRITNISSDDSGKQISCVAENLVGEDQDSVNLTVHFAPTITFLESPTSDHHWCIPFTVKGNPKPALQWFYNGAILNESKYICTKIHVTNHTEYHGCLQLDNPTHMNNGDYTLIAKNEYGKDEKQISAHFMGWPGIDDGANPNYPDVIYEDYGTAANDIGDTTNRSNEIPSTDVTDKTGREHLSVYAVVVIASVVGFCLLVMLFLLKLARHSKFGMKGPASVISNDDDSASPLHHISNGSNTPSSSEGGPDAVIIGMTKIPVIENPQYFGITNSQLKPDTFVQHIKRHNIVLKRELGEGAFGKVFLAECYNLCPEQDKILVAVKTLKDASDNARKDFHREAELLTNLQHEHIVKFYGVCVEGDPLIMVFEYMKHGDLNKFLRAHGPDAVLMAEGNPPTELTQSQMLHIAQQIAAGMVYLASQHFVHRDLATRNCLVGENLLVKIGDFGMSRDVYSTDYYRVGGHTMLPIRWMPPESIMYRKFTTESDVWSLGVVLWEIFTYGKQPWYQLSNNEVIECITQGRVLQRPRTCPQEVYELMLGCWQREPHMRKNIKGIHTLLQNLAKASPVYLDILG
Sequence of CSNK1E (CK1 epsilon) (P49674 whole entry): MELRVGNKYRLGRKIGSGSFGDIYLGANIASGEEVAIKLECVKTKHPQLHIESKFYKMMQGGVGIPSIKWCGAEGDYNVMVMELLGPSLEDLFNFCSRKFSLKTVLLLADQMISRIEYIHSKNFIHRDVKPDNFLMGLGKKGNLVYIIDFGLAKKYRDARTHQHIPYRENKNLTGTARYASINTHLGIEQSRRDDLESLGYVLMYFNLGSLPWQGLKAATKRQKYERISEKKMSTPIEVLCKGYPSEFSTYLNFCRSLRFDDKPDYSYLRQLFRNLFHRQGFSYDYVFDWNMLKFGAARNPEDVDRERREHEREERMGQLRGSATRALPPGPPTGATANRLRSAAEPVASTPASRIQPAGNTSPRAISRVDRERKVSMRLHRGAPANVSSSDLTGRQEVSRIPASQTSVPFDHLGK
Sequence of PIK3CB/PIK3R2 (p110 beta/p85 beta) (P42338 whole entry): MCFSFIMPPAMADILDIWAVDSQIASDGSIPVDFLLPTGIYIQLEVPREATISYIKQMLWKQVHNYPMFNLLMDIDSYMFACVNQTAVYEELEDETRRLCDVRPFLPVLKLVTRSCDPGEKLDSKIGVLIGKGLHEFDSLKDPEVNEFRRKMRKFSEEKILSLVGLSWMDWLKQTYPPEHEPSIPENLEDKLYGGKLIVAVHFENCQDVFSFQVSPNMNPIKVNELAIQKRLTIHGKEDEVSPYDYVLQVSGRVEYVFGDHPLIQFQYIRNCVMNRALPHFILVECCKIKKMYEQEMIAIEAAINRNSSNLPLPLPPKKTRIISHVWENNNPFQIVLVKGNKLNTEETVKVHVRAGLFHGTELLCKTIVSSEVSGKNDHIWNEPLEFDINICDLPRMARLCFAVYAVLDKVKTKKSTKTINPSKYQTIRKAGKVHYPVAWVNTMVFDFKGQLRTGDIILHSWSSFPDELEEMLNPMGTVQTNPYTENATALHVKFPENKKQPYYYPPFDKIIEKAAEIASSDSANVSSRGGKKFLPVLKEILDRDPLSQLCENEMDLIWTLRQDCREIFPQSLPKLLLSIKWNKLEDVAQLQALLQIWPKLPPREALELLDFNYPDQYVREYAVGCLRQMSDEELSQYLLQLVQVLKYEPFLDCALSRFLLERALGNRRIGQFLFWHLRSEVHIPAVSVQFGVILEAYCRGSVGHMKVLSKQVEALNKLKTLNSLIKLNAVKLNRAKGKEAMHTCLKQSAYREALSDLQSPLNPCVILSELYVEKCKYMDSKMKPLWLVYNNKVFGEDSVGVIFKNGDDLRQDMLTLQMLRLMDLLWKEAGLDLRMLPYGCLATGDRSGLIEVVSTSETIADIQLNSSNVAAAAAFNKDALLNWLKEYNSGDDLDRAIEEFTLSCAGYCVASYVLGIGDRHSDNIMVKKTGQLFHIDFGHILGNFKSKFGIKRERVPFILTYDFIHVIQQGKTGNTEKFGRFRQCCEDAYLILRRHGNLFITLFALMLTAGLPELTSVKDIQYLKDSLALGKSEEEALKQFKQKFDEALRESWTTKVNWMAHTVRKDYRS
Sequence of PIK3CB/PIK3R2 (p110 beta/p85 beta) (O00459 whole entry partner): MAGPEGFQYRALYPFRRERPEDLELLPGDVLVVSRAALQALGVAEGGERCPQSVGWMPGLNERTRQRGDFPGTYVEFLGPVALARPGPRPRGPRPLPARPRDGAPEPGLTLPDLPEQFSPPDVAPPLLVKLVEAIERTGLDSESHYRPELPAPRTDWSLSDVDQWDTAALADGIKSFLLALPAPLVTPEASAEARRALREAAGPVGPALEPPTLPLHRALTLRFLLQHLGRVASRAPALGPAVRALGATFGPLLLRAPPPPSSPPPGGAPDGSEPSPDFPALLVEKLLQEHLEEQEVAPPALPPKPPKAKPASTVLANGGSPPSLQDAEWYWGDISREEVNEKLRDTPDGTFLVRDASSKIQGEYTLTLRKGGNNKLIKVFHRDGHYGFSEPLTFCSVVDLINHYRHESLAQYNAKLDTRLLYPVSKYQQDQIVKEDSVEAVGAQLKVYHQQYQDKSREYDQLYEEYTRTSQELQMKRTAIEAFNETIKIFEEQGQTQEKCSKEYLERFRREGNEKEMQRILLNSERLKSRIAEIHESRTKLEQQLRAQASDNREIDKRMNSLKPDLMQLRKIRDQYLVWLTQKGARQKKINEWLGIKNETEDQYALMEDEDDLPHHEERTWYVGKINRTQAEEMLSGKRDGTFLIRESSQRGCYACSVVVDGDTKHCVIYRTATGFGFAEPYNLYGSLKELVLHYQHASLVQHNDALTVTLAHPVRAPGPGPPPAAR
Sequence of CSNK2A1 (CK2 alpha 1) (P68400 whole entry): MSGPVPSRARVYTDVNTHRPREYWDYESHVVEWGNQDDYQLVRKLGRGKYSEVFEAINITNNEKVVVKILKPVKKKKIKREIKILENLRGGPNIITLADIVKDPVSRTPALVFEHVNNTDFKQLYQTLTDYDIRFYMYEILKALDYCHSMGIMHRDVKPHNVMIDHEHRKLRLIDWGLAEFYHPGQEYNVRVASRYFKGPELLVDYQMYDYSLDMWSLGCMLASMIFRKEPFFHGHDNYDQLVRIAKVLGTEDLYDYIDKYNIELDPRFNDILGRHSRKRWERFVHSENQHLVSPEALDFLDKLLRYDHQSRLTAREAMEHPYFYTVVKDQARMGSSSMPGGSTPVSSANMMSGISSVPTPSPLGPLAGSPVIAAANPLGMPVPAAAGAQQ

## C#CCOc1ccc(Nc2ncc(Cl)c(Nc3ccccc3NC(=O)C=C)n2)c(OC)c1 [Compound 6]
PEAK1; [2]
  inhibition at 1 µM: 7%
PEAK1; PEAK1, 1 µM, ZLYTE, ATP Km app, listed as WEL028, 1 µM
  Inhibition at 1 µM (%): 8%
PEAK1; read-out: Inhibition at 1 µM (%), PEAK1, 1 µM, ZLYTE, ATP Km app
  inhibition at 1 µM: 6%
CSNK1E (CK1 epsilon); [2]
  inhibition at 1 µM: 9%
CSNK1E (CK1 epsilon)
  Inhibition at 1 µM (%): 14%
CSNK1E (CK1 epsilon); listed as WEL028, 1 µM
  Inhibition at 1 µM (%): 4%
PIP4K2A
  inhibition at 1 µM: -10%
DAPK2; [2]
  inhibition at 1 µM: 10%
DAPK2
  Inhibition at 1 µM (%): 14%
DAPK2; listed as WEL028, 1 µM
  Inhibition at 1 µM (%): 6%
WNK1; 1 μM WEL028, 1 h preincubation
  Inhibition (%): 5%
WNK1; 1 µM, LanthaScreen Binding
  Inhibition at 1 µM (%): 11%
CSNK2A1 (CK2 alpha 1); [2]
  inhibition at 1 µM: 4%
CSNK2A1 (CK2 alpha 1); CSNK2A1 (CK2 alpha 1), 1 µM, ZLYTE, ATP Km app, listed as WEL028, 1 µM
  Inhibition at 1 µM (%): 9% and 0%
DDR2; [2]
  inhibition at 1 µM: 3%
DDR2; read-out: Inhibition at 1 µM (%), DDR2, 1 µM, LanthaScreen Binding
  inhibition at 1 µM: 2%
TBK1; [3]
  Inhibition at 1 µM (%): 6%
TBK1; [2]
  inhibition at 1 µM: 7%
TBK1; read-out: Inhibition at 1 µM (%), 1 µM, ZLYTE, ATP Km app
  inhibition at 1 µM: 8%
PRKCH (PKC eta)
  inhibition at 1 µM: -4%
NEK6; [2]
  inhibition at 1 µM: 9%
NEK6
  Inhibition at 1 µM (%): 13%
NEK6; listed as WEL028, 1 µM
  Inhibition at 1 µM (%): 5%
GRK5; 1 h
  inhibition at 1 µM: 4%
GRK5; read-out: Inhibition at 1 µM (%)
  inhibition at 1 µM: 4%
DYRK3; [2]
  inhibition at 1 µM: 2%
DYRK3; DYRK3, 1 µM, ZLYTE, ATP Km app, listed as WEL028, 1 µM
  Inhibition at 1 µM (%): 0% and 4%
SRPK1; [3]
  Inhibition at 1 µM (%): 2% and 11%
SRPK1; [2]
  inhibition at 1 µM: 7%
[1]; [2]
  inhibition at 1 µM: 2%
[1]; PIK3CB/PIK3R2 (p110 beta/p85 beta), 1 µM, Adapta, ATP 10, listed as WEL028, 1 µM
  Inhibition at 1 µM (%): 4% and -1%
NTRK2 (TRKB); [2]
  inhibition at 1 µM: 5%
NTRK2 (TRKB); NTRK2 (TRKB), 1 µM, ZLYTE, ATP Km app, listed as WEL028, 1 µM
  Inhibition at 1 µM (%): 0% and 9%
CSNK1G3 (CK1 gamma 3); 1 μM WEL028, 1 h preincubation
  Inhibition (%): 0%
CSNK1G3 (CK1 gamma 3); CSNK1G3 (CK1 gamma 3), 1 µM, ZLYTE, ATP Km app, listed as WEL028, 1 µM
  Inhibition at 1 µM (%): 3% and -2%
JAK1; 1 μM WEL028, 1 h preincubation
  Inhibition (%): -3%
JAK1
  Inhibition at 1 µM (%): -2%
JAK1; listed as WEL028, 1 µM
  Inhibition at 1 µM (%): -3%
CDK6/cyclin D1
  inhibition at 1 µM: -6%
STK17A (DRAK1); 1 µM, LanthaScreen Binding, listed as WEL028, 1 µM
  Inhibition at 1 µM (%): 10%
STK17A (DRAK1); [2]
  inhibition at 1 µM: 9%
STK17A (DRAK1); read-out: Inhibition at 1 µM (%), 1 µM, LanthaScreen Binding
  inhibition at 1 µM: 8%
EPHA6; [2]
  inhibition at 1 µM: 6%
EPHA6; read-out: Inhibition at 1 µM (%), EPHA6, 1 µM, LanthaScreen Binding
  inhibition at 1 µM: 5%
